Measured values: patent US20230011869A1 (Hoffmann-La Roche Inc., priority 2018, published 2023)
Structures can show the parent of a compound that is named as a salt.

Test system: Acinetobacter baumannii ATCC17961
Experiment: Antimicrobial susceptibility testing: 90% growth inhibitory concentration (IC90) determination, Iso-Sensitest broth
Assay type: cell-based
Conditions: Acinetobacter baumannii, ATCC17961, 16 h, 90% growth inhibitory concentration, Acinetobacter baumannii ATCC17961, Iso-Sensitest broth, OD 600 nm over 16 h; read-out: ATCC17961 IC90
In short: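 Twofold serial dilutions (e.g. 50 to 0.097 μM final) in Iso-Sensitest broth, inoculum 5×10^(5) CFU/ml, incubated at 35±2° C. OD600 read every 20 minutes over 16 h; IC90 derived from growth inhibition during logarithmic phase.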

SMILES | IC90 [nM]
COc1ccc(-c2cnc3c(Nc4ccc(C(=O)N5CCN(C(=O)[C@H](CCCN)NC(=O)[C@@H](N)CCC(=O)O)CC5)c(C)c4)nccn23)c(F)c1F [Example 535, (4S)-4-amino-5-[[2S)-5-amino-1-[4-[4-[[3-(2,3-difluoro-4-methoxyphenyl)imidazo[1,2-a]pyrazin-8-yl]amino]-2-methylbenzoyl]piperazin-1-yl]-1-oxopentan-2-yl]amino]-5-oxopentanoic acid; hydrochloride] | 1920
Cc1cc(Nc2nccn3c(-c4ccc(OCC#N)c(F)c4Cl)cnc23)ccc1C(=O)N1CCC(C(=O)N2CCN[C@H](CO)C2)CC1 [Example 538, 2-[3-chloro-2-fluoro-4-[8-[4-[4-[(3S)-3-(hydroxymethyl)piperazine-1-carbonyl]piperidine-1-carbonyl]-3-methylanilino]imidazo[1,2-a]pyrazin-3-yl]phenoxy]acetonitrile; for-mic acid] | 88
Cc1cc(Nc2nccn3c(-c4ccc(OCC#N)c(F)c4F)cnc23)ccc1C(=O)N1CCN(C(=O)CN(C)C)CC1 [Example 545, 2-[4-[8-[4-[4-[2-(dimethylamino)acetyl]piper-azine-1-carbonyl]-3-methylanilino]imidazo[1,2-a]pyrazin-3-yl]-2,3-difluorophenoxy]acetonitrile; formic acid] | 38
COc1ccc(-c2cnc3c(Nc4ccc(C(=O)N5CCN(C(=O)[C@H](CCCNC(=N)N)NC(=O)[C@@H](N)CCC(=O)O)CC5)c(C)c4)nccn23)c(F)c1F [Example 555, (S)-4-amino-5-(((S)-1-(4-(4-((3-(2,3-difluoro-4-methoxyphenyl)imidazo[1,2-a]pyrazin-8-yl)amino)-2-methylbenzoyl)piperazin-1-yl)-5-guanidino-1-oxopentan-2-yl)amino)-5-oxopentanoic acid trihydrochloride] | 704
Cc1cc(Nc2nccn3c(-c4ccc(OC(F)F)cc4)cnc23)ccc1C(=O)N1CCN(C(=O)OC(C)(C)C)CC1 [Example 556, tert-butyl 4-(4-((3-(4-(difluoromethoxy)phenyl)imidazo [1,2-a]pyrazin-8-yl)amino)-2-methylbenzoyl)piperazine-1-carboxylate] | 418
COc1ccc(-c2cnc3c(Nc4ccc(C(=O)N5CCC(C(=O)N6C[C@@H](O)[C@@H](O)[C@@H](O)C6)CC5)c(C)c4)nccn23)c(F)c1F [Example 569, (1-(4-((3-(2,3-difluoro-4-methoxyphenyl)imidazo[1,2-a]pyrazin-8-yl)amino)-2-methylbenzoyl)piperidin-4-yl)((3R,4s,5S)-3,4,5-trihydroxypiperidin-1-yl)methanone] | 205
COc1ccc(-c2cnc3c(Nc4ccc(C(=O)N5CCC(C(=O)NCC(O)Cn6cccn6)CC5)c(C)c4)nccn23)c(F)c1F (centres unmarked) [Example 570, 1-(4-((3-(2,3-difluoro-4-methoxyphenyl)imidazo[1,2-a]pyrazin-8-yl)amino)-2-methylbenzoyl)-N-(2-hydroxy-3-(1H-pyrazol-1-yl)propyl)piperidine-4-carboxamide] | 245
COc1ccc(-c2cnc3c(Nc4ccc(C(=O)N5CCC(C(=O)NCC(O)CN6CCOC(C)C6)CC5)c(C)c4)nccn23)c(F)c1F (centres unmarked) [Example 571, 1-(4-((3-(2,3-difluoro-4-methoxyphenyl)imidazo[1,2-a]pyrazin-8-yl)amino)-2-methylbenzoyl)-N-(2-hydroxy-3-(2-methylmorpholino)propyl) piperidine-4-carboxamide] | 265
COc1ccc(-c2cnc3c(Nc4ccc(C(=O)N5CCC(C(=O)NCC(O)CN6CCOCC6)CC5)c(C)c4)nccn23)c(F)c1F (centres unmarked) [Example 572, 1-(4-((3-(2,3-difluoro-4-methoxyphenyl)imidazo[1,2-a]pyrazin-8-yl)amino)-2-methylbenzoyl)-N-(2-hydroxy-3-morpholinopropyl)piperidine-4-carboxamide] | 216
COc1ccc(-c2cnc3c(Nc4ccc(C(=O)N5CCN(C(=O)[C@@H]6CC(F)(F)CN6)CC5)c(C)c4)nccn23)c(F)c1F [Example 573, (S)-(4-(4-((3-(2,3-difluoro-4-methoxyphenyl)imidazo[1,2-a]pyrazin-8-yl)amino)-2-methylbenzoyl)piperazin-1-yl)(4,4-difluoropyrrolidin-2-yl)methanone hydrochloride] | 310
COc1ccc(-c2cnc3c(Nc4ccc(C(=O)N5CCN(C(=O)[C@@H]6C[C@@H](C#N)CN6)CC5)c(C)c4)nccn23)c(F)c1F [Example 574, (3R,5S)-5-[4-[4-[[3-(2,3-difluoro-4-methoxyphenyl)imidazo[1,2-a]pyrazin-8-yl]amino]-2-methylbenzoyl]piperazine-1-carbonyl]pyrrolidine-3-carbonitrile;hydrochloride] | 265
COc1ccc(-c2cnc3c(Nc4cc(C)c(C(=O)N5CCN(C(=O)[C@@H]6C[C@@H](O)CN6)CC5)c(Cl)c4)nccn23)c(F)c1F [Example 575, (4-(2-chloro-4-((3-(2,3-difluoro-4-methoxyphenyl)imidazo[1,2-a]pyrazin-8-yl)amino)-6-methylbenzoyl)piperazin-1-yl)((2S,4R)-4-hydroxypyrrolidin-2-yl)methanone dihydrochloride] | 583
COc1ccc(-c2cnc3c(Nc4ccc(C(=O)N5CCN(C(=O)[C@@H]6C[C@@H](O)CN6)CC5)c(C)c4F)nccn23)c(F)c1F [Example 576, (4-(4-((3-(2,3-difluoro-4-methoxyphenyl)imidazo[1,2-a]pyrazin-8-yl)amino)-3-fluoro-2-methylbenzoyl)piperazin-1-yl)((2S,4R)-4-hydroxypyrrolidin-2-yl)methanone dihydrochloride] | 236
COc1ccc(-c2cnc3c(Nc4ccc(C(=O)N5CCN(S(=O)(=O)[C@@H]6CCNC6)CC5)c(C)c4)nccn23)c(F)c1F [Example 579, (R)-(4-((3-(2,3-difluoro-4-methoxyphenyl)imidazo[1,2-a]pyrazin-8-yl)amino)-2-methylphenyl)(4-(pyrrolidin-3-ylsulfonyl)piperazin-1-yl)methanone] | 258
CCc1cc(Nc2nccn3c(-c4ccc(OC)c(F)c4F)cnc23)ccc1C(=O)N1CCN(CCO[C@@H]2O[C@H](CO)[C@H](O)[C@H](O)[C@H]2O)CC1 [Example 580, (4-((3-(2,3-difluoro-4-methoxyphenyl)imidazo[1,2-a]pyrazin-8-yl)amino)-2-ethylphenyl)(4-(2-(((2R,3R,4S,5R,6R)-3,4,5-trihydroxy-6-(hydroxymethyl)tetrahydro-2H-pyran-2-yl)oxy)ethyl)piperazin-1-yl)methanone] | 601
COc1ccc(-c2cnc3c(Nc4ccc(C(=O)N5C[C@H]6CNC[C@@H](C5)O6)c(C)c4)nccn23)c(F)c1F [Example 581, ((1R,5S)-9-oxa-3,7-diazabicyclo[3.3.1]nonan-3 - yl)(4-((3-(2,3-difluoro-4-methoxyphenyl)imidazo[1,2-a]pyrazin-8-yl)amino)-2-methylphenyl)methanone dihydrochloride] | 464
COc1ccc(-c2cnc3c(Nc4ccc(C(=O)N5CCN(C(=O)[C@@H]6C[C@@](O)(C(F)(F)F)CN6)CC5)c(C)c4)nccn23)c(F)c1F [Example 582, (4-(4-((3-(2,3-difluoro-4-methoxyphenyl)imidazo[1,2-a]pyrazin-8-yl)amino)-2-methylbenzoyl)piperazin-1-yl)((2S,4S)-4-hydroxy-4-(trifluoromethyl)pyrrolidin-2-yl)methanone hydrochloride] | 273
COc1ccc(-c2cnc3c(Nc4ccc(C(=O)N5CCN(C(=O)[C@@H]6C[C@@](OC)(C(F)(F)F)CN6)CC5)c(C)c4)nccn23)c(F)c1F [Example 583, (4-(4-((3-(2,3-difluoro-4-methoxyphenyl)imidazo[1,2-a]pyrazin-8-yl)amino)-2-methylbenzoyl)piperazin-1-yl)((2S,4S)-4-methoxy-4-(trifluoromethyl)pyrrolidin-2-yl)methanone hydrochloride] | 460
COc1ccc(-c2cnc3c(Nc4ccc(C(=O)N5CCC(C(=O)NC[C@H]6O[C@H](O)[C@H](N)[C@@H](O)[C@@H]6O)CC5)c(C)c4)nccn23)c(F)c1F [Example 584, N-(((2R,3S,4R,5R,6S)-5-amino-3,4,6-trihydroxytetrahydro-2H-pyran-2-yl)methyl)-1-(4-((3-(2,3-difluoro-4-methoxyphenyl)imidazo[1,2-a]pyrazin-8-yl)amino)-2-methylbenzoyl)piperidine-4-carboxamide] | 164
CCc1cc(Nc2nccn3c(-c4ccc(OC(F)F)c(F)c4F)cnc23)ccc1C(=O)N1CCC(C(=O)N2C[C@H]3C[C@@H](C2)N3)CC1 [Example 589, (4-(3,6-diazabicyclo[3.1.1]heptane-3-carbonyl)piperidin-1-yl)(4-((3-(4-(difluoromethoxy)-2,3-difluorophenyl)imidazo[1,2-a]pyrazin-8-yl)amino)-2-ethylphenyl)methanone formate] | 59

Same assay, conditions: Acinetobacter baumannii, ATCC17961, 16 h, read-out: ATCC17961 IC90

SMILES | IC90 [nM]
CCc1cc(Nc2nccn3c(-c4ccc(OC)c(F)c4F)cnc23)ccc1C(=O)N1CC(OCCN)C1 [Example 585, (3-(2-aminoethoxy)azetidin-1-yl)(4-((3-(2,3-difluoro-4-methoxyphenyl)imidazo[1,2-a]pyrazin-8-yl)amino)-2-ethylphenyl)methanone formate] | 94
COc1cc(Nc2nccn3c(-c4ccc(OC)c(F)c4F)cnc23)ccc1C(=O)N1CCN(C(=O)C2CCNCC2)CC1 [Example 587, (4-(4-((3-(2,3-difluoro-4-methoxyphenyl)imidazo[1,2-a]pyrazin-8-yl)amino)-2-methoxybenzoyl)piperazin-1-yl)(piperidin-4-yl)methanone formate] | 214
CCc1cc(Nc2nccn3c(-c4ccc(OC(F)F)c(F)c4F)cnc23)ccc1C(=O)N1CCN(C(=O)C2CCN(CC3CNC3)CC2)CC1 [Example 588, (1-(azetidin-3-ylmethyl)piperidin-4-yl)(4-(4-((3-(4-(difluoromethoxy)-2,3-difluorophenyl)imidazo[1,2-a]pyrazin-8-yl)amino)-2-ethylbenzoyl)piperazin-1-yl)methanone tris(2,2,2-trifluoroacetate)] | 116
